The text below walks through data of PubChem BioAssay (NCI).

Test systems include COLO 205 colon; K-562 leukemia; KM12 colon; LOX IMVI melanoma; NCI-H522 lung; OVCAR-8 ovarian; SF-539 CNS; SN12C renal; SW-620 colon; UO-31 renal.
Holding throughout (assay): NCI tumour cell line growth inhibition, 48 h

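Values below derive from 48-hour exposures of cells grown in 96-well plates, with endpoints linearly interpolated between the two concentrations bracketing the appropriate inhibition level. The concentration for 50% growth inhibition is given as GI50. At the TGI there is no net growth.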 Some results are limits rather than exact numbers.

In the case of `CC(=O)OC1COC(Oc2c(C)c3c4c(c2O)[C@@H](C)CC[C@@H]4[C@@H](C)C[C@H]3C=C(C)C)C(O)C1OC(C)=O` (stereo partly drawn), the GI50 is 15.5 µM in the assay on COLO 205 colon; 12.5 µM in the assay on K-562 leukemia; 17.4 µM in the assay on KM12 colon; 12 µM with LOX IMVI melanoma; 17.6 µM in the assay with NCI-H522 lung; 16 µM in the assay on OVCAR-8 ovarian. Moreover, the GI50 in the assay with SF-539 CNS was 22.4 µM; in the assay with SN12C renal it was 12.4 µM; in the assay with SW-620 colon, 36.4 µM; in the assay with UO-31 renal, 17.3 µM. Also, the TGI in the assay on COLO 205 colon amounted to 57.4 µM; in the assay with K-562 leukemia, 32.8 µM; in the assay with KM12 colon, 36.4 µM; in the assay on LOX IMVI melanoma, 25.7 µM; in the assay with NCI-H522 lung, 35 µM; in the assay on OVCAR-8 ovarian it was 32.9 µM. In addition, the TGI in the assay on SF-539 CNS was 42.6 µM; with SN12C renal it was 25.8 µM; in the assay on SW-620 colon it was more than 100 µM; in the assay on UO-31 renal, 40.9 µM.
For the compound `CC1(C)N=C(N)N=C(N)N1c1ccc(CCCCc2ccc(Cl)cc2S(=O)(=O)F)c(Cl)c1`, the GI50 with COLO 205 colon is 0.522 µM; in the assay on K-562 leukemia, 0.073 µM; in the assay with KM12 colon it was 0.551 µM; in the assay on LOX IMVI melanoma, 0.242 µM; in the assay on NCI-H522 lung, 0.53 µM; in the assay with OVCAR-8 ovarian, 0.499 µM. The GI50 with SF-539 CNS was 0.539 µM; in the assay on SN12C renal, 0.34 µM; in the assay with SW-620 colon, 0.234 µM; in the assay with UO-31 renal, 6.22 µM. The TGI with COLO 205 colon was 2.53 µM; with K-562 leukemia, 13.8 µM; in the assay on KM12 colon, 14.4 µM; in the assay on LOX IMVI melanoma, 13.4 µM; with NCI-H522 lung, 13.4 µM; in the assay on OVCAR-8 ovarian, 16.8 µM. For the same compound, the TGI was found to be 6.76 µM in the assay with SF-539 CNS, 14.7 µM with SN12C renal, 14.1 µM with SW-620 colon and 23.6 µM in the assay on UO-31 renal.
As to `S=C(Nc1ccc(Cl)cc1)Nc1ccc(-c2nc3ccccc3s2)cc1`, the GI50 was 18.7 µM in the assay with COLO 205 colon; 7.28 µM in the assay with K-562 leukemia; 15 µM with KM12 colon; 24.3 µM in the assay on LOX IMVI melanoma; 5.61 µM in the assay on NCI-H522 lung; 17.9 µM in the assay on OVCAR-8 ovarian. Further, the GI50 with SF-539 CNS was 17.5 µM; with SN12C renal it was 15.4 µM; in the assay on SW-620 colon, 17.9 µM; in the assay with UO-31 renal it was 11.8 µM. Besides, the TGI with COLO 205 colon is 53.7 µM; with K-562 leukemia, 47.2 µM; in the assay on KM12 colon, 49.1 µM; with LOX IMVI melanoma, more than 100 µM; in the assay on NCI-H522 lung, 19.6 µM; in the assay with OVCAR-8 ovarian it was 41.7 µM. For the same compound, the TGI in the assay with SF-539 CNS is 34 µM; in the assay on SN12C renal, 35 µM; in the assay with SW-620 colon it was 35.4 µM; with UO-31 renal it was 25.2 µM.
`CCN(CC)CCCN1CCc2c([nH]c3ccccc23)C1c1cccnc1` (stereo not drawn): the TGI in the assay with COLO 205 colon, in the assay with K-562 leukemia, in the assay on KM12 colon, with LOX IMVI melanoma, in the assay with NCI-H522 lung and in the assay with OVCAR-8 ovarian was more than 100 µM throughout. The TGI in the assay with SF-539 CNS, in the assay with SN12C renal, with SW-620 colon and in the assay on UO-31 renal was more than 100 µM each time.
For `O=C(Nc1ccc2ncccc2c1)Nc1ccc2ncccc2c1`, the TGI in the assay on COLO 205 colon, in the assay on K-562 leukemia, with KM12 colon, in the assay with LOX IMVI melanoma, in the assay on NCI-H522 lung and in the assay on OVCAR-8 ovarian was more than 100 µM throughout. Also, the TGI in the assay with SF-539 CNS, in the assay with SN12C renal, in the assay with SW-620 colon and in the assay on UO-31 renal was more than 100 µM throughout.
For the compound `CC(C)(C)NNC(=O)CCn1[nH]c(=O)c(Cl)c(Cl)c1=O`, the TGI in the assay on COLO 205 colon, with K-562 leukemia, in the assay with KM12 colon, in the assay with LOX IMVI melanoma, in the assay with NCI-H522 lung and in the assay on OVCAR-8 ovarian was more than 100 µM each time. Further, the TGI in the assay on SF-539 CNS, in the assay on SN12C renal, in the assay on SW-620 colon and with UO-31 renal was more than 100 µM in each case.
Regarding `Cc1ccc(S(=O)(=O)N(C=O)N=C2CCN(Cc3ccccc3)CC2)cc1`, the TGI with COLO 205 colon, with K-562 leukemia, with KM12 colon, in the assay with LOX IMVI melanoma, in the assay with NCI-H522 lung and with OVCAR-8 ovarian was more than 100 µM in each case. Moreover, the TGI in the assay with SF-539 CNS, in the assay on SN12C renal, in the assay on SW-620 colon and in the assay on UO-31 renal was more than 100 µM in each case.
As to `CN1CCN(C2CCN(C(=O)Nc3cc(Oc4ccc(NC(=O)C5(C(=O)Nc6ccc(F)cc6)CC5)c(F)c4)ccn3)CC2)CC1`, the GI50 is 0.977 µM with COLO 205 colon; 0.514 µM in the assay on K-562 leukemia; 0.292 µM in the assay with KM12 colon; 1.04 µM in the assay on LOX IMVI melanoma; 0.994 µM in the assay with SF-539 CNS; 0.855 µM with SN12C renal. The GI50 with SW-620 colon is 1.43 µM; with UO-31 renal, 1.46 µM. Also, the TGI is more than 2.19 µM with COLO 205 colon; more than 2.53 µM in the assay with K-562 leukemia; more than 2.52 µM in the assay on KM12 colon; more than 10 µM with LOX IMVI melanoma; more than 2.66 µM in the assay with NCI-H522 lung; more than 10 µM in the assay with OVCAR-8 ovarian. Further, the TGI in the assay on SF-539 CNS is more than 2.2 µM; in the assay with SN12C renal, more than 7.82 µM; in the assay with SW-620 colon, more than 10 µM; in the assay on UO-31 renal it was more than 10 µM.
With `CC[As](CC)SC[C@H](C)C(=O)N1CCC[C@H]1C(=O)O`, the GI50 in the assay on COLO 205 colon was 0.0344 µM; with K-562 leukemia it was less than 0.01 µM; with KM12 colon, 0.301 µM; in the assay on LOX IMVI melanoma it was 0.0458 µM; in the assay on NCI-H522 lung, 0.0189 µM; in the assay on OVCAR-8 ovarian, 0.123 µM. Further, the GI50 in the assay with SF-539 CNS was 0.0291 µM; in the assay with SN12C renal, 0.0637 µM; in the assay with SW-620 colon it was 0.0344 µM; in the assay with UO-31 renal it was 0.024 µM. Further, the TGI with COLO 205 colon is 0.14 µM; in the assay on K-562 leukemia it was 0.0615 µM; in the assay with KM12 colon, 1.27 µM; with LOX IMVI melanoma, 0.102 µM; with NCI-H522 lung, 0.0482 µM; in the assay with OVCAR-8 ovarian, 0.472 µM. For the same compound, the TGI with SF-539 CNS is 0.136 µM; with SN12C renal it was 0.218 µM; with SW-620 colon, 0.11 µM; in the assay with UO-31 renal it was 0.0933 µM.
